Here are results for two molecules from patent US20040053292A1, “Proteins and dna sequences underlying these proteins used for treating inflammations” (priority 2000, published 2004).

This assay deals with proIL-1β. The assay can be described thus: in vitro pro-IL1β activation in THP.1 cell lysates incubated at 30° C., Western blotting. Type of assay: biochemical, human. To be noted: lysates of LPS-prestimulated THP.1 cells at 30° C. As to the method: However, THP1 cells express caspase-5 even without LPS activation. FIG. 11c represents the results of experiments which emerge when cell lysates from THP.1 cells which have been prestimulated with LPS were incubated at 30° C. for the periods shown at the top in FIG. 11c. This is because caspase-1 activation is to be observed spontaneously when cytoplasmic cell extracts are heated to 30° C. The activation of caspase-1, caspase-5, caspase-9 and pro-IL1β, followed by Western blotting in the presence or absence of caspase inhibitors zVADfmk (50 μM), YVADfmk (5 μM) and proteasome inhibitor LLnL (50 μM) was measured as a function of time. Cytochrome C (1 ng) was added to activate Apaf-1 and caspase-9. The monoclonal antibodies employed to detect caspase-5 and caspase-9 each recognize the p20 subunit. The four sections of the picture in FIG. 11c depict the respective bands obtained by labeling with anti-caspase-1 antibody, anti-caspase-5 antibody, anti-caspase-9 antibody and anti-IL1β antibody. […]
Addition of the two caspase-1 inhibitors zVADfmk and YVADfmk blocked proIL-1β activation. […] Activation of pro-IL1β, caspase-1 and caspase-5 was measured both in the cell extracts (xt) and in the supernatants (SN). […] The cleavage of […] was detected by an antibody (anti-IL1β*) which specifically recognizes the cleaved form of pro-IL1β, i.e. IL1β*. […]
(Immunoblotting shows a protein as a band on a membrane.)

Peptide text beside a SMILES is read from it. * marks the point of attachment. Cbz = O=C(OCc1ccccc1)*; CH2F = FC*

For `COC(=O)C[C@H](NC(=O)[C@H](C)NC(=O)[C@@H](NC(=O)OCc1ccccc1)C(C)C)C(=O)CF` [zVADfmk] (Cbz-Val-Ala-Asp(OMe)-CH2F), under “zVADfmk 50 μM”, the proIL-1β activation entry is “blocked”.
As for YVADfmk, the proIL-1β activation result (YVADfmk 5 μM) is “blocked”.
